Results taken from ChEMBL document CHEMBL4419176, “Compositions and methods for treating cancer” (2017).
Active and inactive are the calls of the source. The calls are words filed in the database; no cut-off is given here.

Assays:
VMM39 = assay: Cytotoxicity in human VMM39 cells assessed as reduction in cell viability at 25 to 150 uM by alamar blue dye based assay; assay type: functional
U-251 = assay: Cytotoxicity in human U251 cells assessed as reduction in cell viability at 25 to 75 uM by alamar blue dye based assay; assay type: functional

## Cn1nnc2c(C(N)=O)ncn2c1=O
VMM39
  Activity: inactive
U-251
  Activity: inactive
